14 compounds from patent US8952128B2, “Somatostatin-dopamine chimeric analogs” (priority 2012, dated 2015) can be followed below.

Usually EC50 stands for the concentration that produces a half-maximal response. Broadly, the Emax is the size of the effect at its maximum, as opposed to the concentration needed.

Molecules are shown by their SMILES. Bridge positions count the residues as written; N and C are the ends. Square brackets hold non-standard residues; d marks the D form. Peptide text beside a SMILES is read from it. * marks the point of attachment. X2 = CN1C[C@H](CSCC(=O)*)C[C@@H]2c3cccc4[nH]cc(c34)C[C@H]21; 4Pal = N[C@@H](Cc1ccncc1)C(=O)O; dDab = NCC[C@@H](N)C(=O)O

One experiment addresses hSSTR2 (Homo sapiens (Human), UniProt P30874). The experiment can be described thus: Intracellular calcium mobilization assay (FLIPR Calcium 4), hSSTR2.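 On all read-outs here: agonist activity read as intracellular calcium rise in cells expressing human SSTR2, loaded with a calcium-sensitive dye for 60 min at 37 °C, measured by FLIPR.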 It is filed as cell-based. Particulars: for Emax: read-out: hSSTR2 % Emax ± SEM; for improvement in EC50 over Reference Compound A: Student's t-test, one-tailed, p <0.05. For orientation: Calcium assays in cells follow changes in intracellular calcium, usually with a dye or a luminescent sensor.

The next experiment deals with hDRD2 (Homo sapiens (Human), UniProt P14416). The experiment can be described thus: cell-based. The conditions noted are these: for Emax: read-out: hDRD2 % Emax ± SEM.

hSSTR2, sequence (P30874 whole entry): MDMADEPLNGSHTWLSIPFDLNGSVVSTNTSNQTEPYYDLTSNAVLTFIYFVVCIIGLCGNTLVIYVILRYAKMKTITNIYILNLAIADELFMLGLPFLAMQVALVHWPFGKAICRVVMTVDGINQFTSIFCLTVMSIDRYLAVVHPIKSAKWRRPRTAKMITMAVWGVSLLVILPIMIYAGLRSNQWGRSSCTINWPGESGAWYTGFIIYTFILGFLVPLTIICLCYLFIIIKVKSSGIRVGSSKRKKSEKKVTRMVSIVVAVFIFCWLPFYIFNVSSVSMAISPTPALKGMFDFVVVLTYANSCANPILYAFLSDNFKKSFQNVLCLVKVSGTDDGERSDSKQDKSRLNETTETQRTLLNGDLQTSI
Method for hDRD2: (§1) The ability of select compounds according to the present invention to activate hSSTR2 and hDRD2 was determined by the intracellular calcium mobilization assay using FLIPR Calcium 4 assay kit (Molecular Devices).
(§2) Cells expressing hSSTR2 or hDRD2 were plated in 384-well microplates in tissue culture media and incubated for 16-24 hours at 37° C. in a humidified atmosphere with 5% CO2. Medium was replaced by loading buffer containing Hank's buffered saline, 20 mM HEPES, 2.5 mM probenecid and Calcium 4 dye, and the plates were incubated at 37° C. for 60 minutes.
Method for hSSTR2: as §1, §2

As to `C[C@@H](O)[C@@H]1NC(=O)[C@H](CCCCN)NC(=O)[C@@H](Cc2c[nH]c3ccccc23)NC(=O)[C@H](Cc2ccncc2)NC(=O)[C@H](Cc2ccccc2)NC(=O)[C@H](CCCNC(=N)N)NC(=O)[C@H](NCCS(=O)(=O)C[C@@H]2C[C@@H]3c4cccc5[nH]cc(c45)C[C@H]3N(C)C2)CCCCNC(=O)[C@H](Cc2ccc(O)cc2)NC1=O` [Compound 20, Dop1(SO2)-psi(CH2NH)-cyclo(DLys-Arg-Phe-4Pal-DTrp-Lys-Thr-Tyr)], on hSSTR2, the concentration for a half-maximal effect (EC50) worked out at 0.7 ± 0.1 nM and the Emax turned out to be 100.2 ± 0.9%. The same compound gave an EC50 at hDRD2 of 7.4 ± 1.5 nM.

For `CC(=O)N(CCCNC(CN[C@@H]1CCCCNC(=O)[C@H](Cc2ccc(F)cc2)NC(=O)[C@H]([C@@H](C)O)NC(=O)[C@H](CCCCN)NC(=O)[C@@H](Cc2c[nH]c3ccccc23)NC(=O)[C@H](Cc2ccccc2)NC(=O)[C@H](Cc2ccccc2)NC(=O)[C@H](CCCNC(=N)N)NC1=O)Cc1ccc(O)cc1)C[C@@H]1C[C@@H]2c3cccc4[nH]cc(c34)C[C@H]2N(C)C1` (single isomer, unassigned) [Compound 28A, 3-[N-acetyl-N-(D-6-methyl-8β-ergolinylmethyl)]-aminopropionyl-psi(CH2NH)-Tyr-psi(CH2NH)-cyclo(DLys-Arg-Phe-Phe-DTrp-Lys-Thr-4FPhe)], on hSSTR2, the EC50 came to 14.9 ± 6.3 nM and the Emax was found to be 109 ± 20%. Besides, it took 65.5 ± 3.6 nM to reach a half-maximal effect at hDRD2 (EC50).

Consider `C[C@@H](O)[C@@H]1NC(=O)[C@H](CCCCN)NC(=O)[C@@H](Cc2c[nH]c3ccccc23)NC(=O)[C@H](Cc2ccncc2)NC(=O)[C@H](Cc2ccccc2)NC(=O)[C@H](CCCNC(=N)N)NC(=O)[C@H](NC[C@H](CCCCNC(=O)CSC[C@@H]2C[C@@H]3c4cccc5[nH]cc(c45)C[C@H]3N(C)C2)NC(=O)CSC[C@@H]2C[C@@H]3c4cccc5[nH]cc(c45)C[C@H]3N(C)C2)CCCCNC(=O)[C@H](Cc2ccccc2)NC1=O` [Compound 9, Dop1-Lys(Dop1)-psi(CH2NH)-cyclo(DLys-Arg-Phe-4Pal-DTrp-Lys-Thr-Phe)], for which the EC50 came to 22.2 ± 5.5 nM at hSSTR2 and 15.5 ± 3.7 nM at hDRD2. In addition, at hSSTR2 (calcium mobilization), the “improvement in % Emax over Reference Compound C” value (shortened to “improvement in % Emax”) is “statistically significant improvement”. Besides, on hSSTR2, the Emax was 98.4 ± 1.6%.

Take `C[C@@H](O)[C@@H]1NC(=O)[C@H](CCCCN)NC(=O)[C@@H](Cc2c[nH]c3ccccc23)NC(=O)[C@H](Cc2ccccc2)NC(=O)[C@H](Cc2ccccc2)NC(=O)[C@H](CCCNC(=N)N)NC(=O)[C@H](NC[C@@H](Cc2ccc(O)cc2)NC(=O)CSC[C@@H]2C[C@@H]3c4cccc5[nH]cc(c45)C[C@H]3N(C)C2)CCCCNC(=O)[C@H](Cc2ccccc2)NC1=O` [Compound 41, Dop1-DTyr-psi(CH2NH)-cyclo(DLys-Arg-Phe-Phe-DTrp-Lys-Thr-Phe)]: the EC50 turned out to be 29.6 nM at hSSTR2 and 62.6 nM on hDRD2. The Emax at hSSTR2 amounted to 104%.

Turning to `C[C@@H](O)[C@@H]1NC(=O)[C@H](CCCCN)NC(=O)[C@@H](Cc2c[nH]c3ccccc23)NC(=O)[C@H](Cc2ccccc2)NC(=O)[C@H](Cc2ccccc2)NC(=O)[C@H](CCCNC(=N)N)NC(=O)[C@H](NC(=O)[C@H](CCCCNC(=O)CSC[C@@H]2C[C@@H]3c4cccc5[nH]cc(c45)C[C@H]3N(C)C2)NC(=O)CSC[C@@H]2C[C@@H]3c4cccc5[nH]cc(c45)C[C@H]3N(C)C2)CCNC(=O)[C@H](Cc2ccccc2)NC1=O` [Reference Compound C, Dop1-Lys(Dop1)-cyclo(DDab-Arg-Phe-Phe-DTrp-Lys-Thr-Phe), reference compound] (X2-K(X2)[dDab]RFF[dW]KTF; lactam 2-C), the EC50 on hSSTR2 stood at 68.7 ± 40.8 nM; at hDRD2, 112 ± 39.2 nM.

For `C[C@@H](O)[C@@H]1NC(=O)[C@H](CCCCN)NC(=O)[C@@H](Cc2c[nH]c3ccccc23)NC(=O)[C@H](Cc2ccccc2)NC(=O)[C@H](Cc2ccccc2)NC(=O)[C@H](CCCNC(=N)N)NC(=O)[C@H](NCCSC[C@@H]2C[C@@H]3c4cccc5[nH]cc(c45)C[C@H]3N(C)C2)CCCCNC(=O)[C@H](Cc2ccc(F)cc2)NC1=O` [Compound 6, Dop1-psi(CH2NH)-cyclo(DLys-Arg-Phe-Phe-DTrp-Lys-Thr-4FPhe)], the “improvement in EC50 over Reference Compound A” value on hSSTR2 is listed as “statistically significant improvement”. Besides, the Emax at hSSTR2 came out at 99.1 ± 0.6%; at hDRD2, 88.3 ± 5.1%.

Take `C[C@@H](O)[C@@H]1NC(=O)[C@H](CCCCN)NC(=O)[C@@H](Cc2c[nH]c3ccccc23)NC(=O)[C@H](Cc2ccncc2)NC(=O)[C@H](Cc2ccccc2)NC(=O)[C@H](CCCNC(=N)N)NC(=O)[C@H](NC[C@H](CCCCNC(=O)CSC[C@@H]2C[C@@H]3c4cccc5[nH]cc(c45)C[C@H]3N(C)C2)NC(=O)CSC[C@@H]2C[C@@H]3c4cccc5[nH]cc(c45)C[C@H]3N(C)C2)CCCCNC(=O)[C@H](Cc2ccc(O)cc2)NC1=O` [Compound 8, Dop1-Lys(Dop1)-psi(CH2NH)-cyclo(DLys-Arg-Phe-4Pal-DTrp-Lys-Thr-Tyr)]: on hSSTR2, the EC50 was 29.8 ± 10.5 nM and the Emax is 98.8 ± 2.6%. In addition, the “improvement in % Emax” value at hSSTR2 (calcium mobilization) is on record as “statistically significant improvement”. Also, it took 18 ± 4.1 nM to reach a half-maximal effect on hDRD2 (EC50).

As to `C[C@@H](O)[C@@H]1NC(=O)[C@H](CCCCN)NC(=O)[C@@H](Cc2c[nH]c3ccccc23)NC(=O)[C@H](Cc2ccccc2)NC(=O)[C@H](Cc2ccccc2)NC(=O)[C@H](CCCNC(=N)N)NC(=O)[C@H](NC[C@H](CCCCNC(=O)CSC[C@@H]2C[C@@H]3c4cccc5[nH]cc(c45)C[C@H]3N(C)C2)NC(=O)CSC[C@@H]2C[C@@H]3c4cccc5[nH]cc(c45)C[C@H]3N(C)C2)CCCCNC(=O)[C@H](Cc2ccc(F)cc2)NC1=O` [Compound 47, Dop1-Lys(Dop1)-psi(CH2NH)-cyclo(DLys-Arg-Phe-Phe-DTrp-Lys-Thr-4FPhe)], at hSSTR2, the EC50 was found to be 77.5 ± 19 nM and the Emax worked out at 96.2 ± 5.9%. In addition, the “improvement in % Emax” value on hSSTR2 (calcium mobilization) was “statistically significant improvement”. The compound further displayed an EC50 at hDRD2 of 46.6 ± 12.2 nM.

For `C[C@@H](O)[C@@H]1NC(=O)[C@H](CCCCN)NC(=O)[C@@H](Cc2c[nH]c3ccccc23)NC(=O)[C@H](Cc2ccncc2)NC(=O)[C@H](Cc2ccccc2)NC(=O)[C@H](CCCNC(=N)N)NC(=O)[C@H](NCCSC[C@@H]2C[C@@H]3c4cccc5[nH]cc(c45)C[C@H]3N(C)C2)CCCCNC(=O)[C@H](Cc2ccc(O)cc2)NC1=O` [Compound 7, Dop1-psi(CH2NH)-cyclo(DLys-Arg-Phe-4Pal-DTrp-Lys-Thr-Tyr)], the “improvement in EC50 over Reference Compound A” value on hSSTR2 is reported as “statistically significant improvement”. Besides, the Emax on hSSTR2 came out at 96.9 ± 2.5%; on hDRD2 it was 102 ± 5%.

For `C[C@@H](O)[C@@H]1NC(=O)[C@H](CCCCN)NC(=O)[C@@H](Cc2c[nH]c3ccccc23)NC(=O)[C@H](Cc2ccncc2)NC(=O)[C@H](Cc2ccccc2)NC(=O)[C@H](CCCNC(=N)N)NC(=O)[C@H](NC(=O)CSC[C@@H]2C[C@@H]3c4cccc5[nH]cc(c45)C[C@H]3N(C)C2)CCCCNC(=O)[C@H](Cc2ccccc2)NC1=O` [Compound 24, Dop1-cyclo(DLys-Arg-Phe-4Pal-DTrp-Lys-Thr-Phe)] (X2-[dK]RF[4Pal][dW]KTF; lactam 1-C), the “improvement in EC50 over Reference Compound A” value at hSSTR2 was “statistically significant improvement”. For the same compound, the “EC50 value lower than that for Reference Compound A” value at hSSTR2 (calcium mobilization, Tables IV and VI) is given as “about 9 fold”. On hDRD2, this compound gave an EC50 of 37.3 ± 6.4 nM.

On to `C[C@@H](O)[C@@H]1NC(=O)[C@H](CCCCN)NC(=O)[C@@H](Cc2c[nH]c3ccccc23)NC(=O)[C@H](Cc2ccccc2)NC(=O)[C@H](Cc2ccccc2)NC(=O)[C@H](CCCNC(=N)N)NC(=O)[C@H](NC(=O)[C@@H](Cc2ccc(O)cc2)NC(=O)CSC[C@@H]2C[C@@H]3c4cccc5[nH]cc(c45)C[C@H]3N(C)C2)CCCCNC(=O)[C@H](Cc2ccccc2)NC1=O` [Compound 37, Dop1-DTyr-cyclo(DLys-Arg-Phe-Phe-DTrp-Lys-Thr-Phe)] (X2-[dY][dK]RFF[dW]KTF; lactam 2-C), for which the Emax at hSSTR2 worked out at 85.5 ± 6.7%; on hDRD2 it was 93.7 ± 4.3%.

As to `C[C@@H](O)[C@@H]1NC(=O)[C@H](CCCCN)NC(=O)[C@@H](Cc2c[nH]c3ccccc23)NC(=O)[C@H](Cc2ccccc2)NC(=O)[C@H](Cc2ccccc2)NC(=O)[C@H](CCCNC(=N)N)NC(=O)[C@H](NCCC[C@@H]2C[C@@H]3c4cccc5[nH]cc(c45)C[C@H]3N(C)C2)CCCCNC(=O)[C@H](Cc2ccc(F)cc2)NC1=O` [Compound 1, (D-6-methyl-8β-ergolinyl)-propionyl-psi(CH2NH)-cyclo(DLys-Arg-Phe-Phe-DTrp-Lys-Thr-4FPhe)], the Emax at hSSTR2 was 98.7%; on hDRD2 it was 102.1 ± 0.4%.

For the compound `C[C@@H](O)[C@@H]1NC(=O)[C@H](CCCCN)NC(=O)[C@@H](Cc2c[nH]c3ccccc23)NC(=O)[C@H](Cc2ccccc2)NC(=O)[C@H](Cc2ccccc2)NC(=O)[C@H](CCCNC(=N)N)NC(=O)[C@H](NC(=O)CSC[C@@H]2C[C@@H]3c4cccc5[nH]cc(c45)C[C@H]3N(C)C2)CCNC(=O)[C@H](Cc2ccccc2)NC1=O` [Reference Compound A, Dop1-cyclo(DDab-Arg-Phe-Phe-DTrp-Lys-Thr-Phe), reference compound] (X2-[dDab]RFF[dW]KTF; lactam 1-C), the results for the maximum response (Emax) at hSSTR2 and at hDRD2 were 86.2 ± 7% and 59.7 ± 7%, respectively.

For `CC(=O)N(CCC(=O)NC(CN[C@@H]1CCCCNC(=O)[C@H](Cc2ccc(F)cc2)NC(=O)[C@H]([C@@H](C)O)NC(=O)[C@H](CCCCN)NC(=O)[C@@H](Cc2c[nH]c3ccccc23)NC(=O)[C@H](Cc2ccccc2)NC(=O)[C@H](Cc2ccccc2)NC(=O)[C@H](CCCNC(=N)N)NC1=O)Cc1ccc(O)cc1)C[C@@H]1C[C@@H]2c3cccc4[nH]cc(c34)C[C@H]2N(C)C1` (single isomer, unassigned) [Compound 27, 3-[N-acetyl-N-(D-6-methyl-8β-ergolinylmethyl)]-aminopropionyl-Tyr-psi(CH2NH)-cyclo(DLys-Arg-Phe-Phe-DTrp-Lys-Thr-4FPhe)], on hSSTR2, the EC50 stood at 11.4 ± 2 nM and the Emax is 95.9 ± 2.4%. At hDRD2, a half-maximal effect (EC50) was put at 50.7 ± 6.8 nM.
